Test system: white laboratory rats
Assay: Blood glucose level in rats before and three hours after administration of oral insulin preparation
Type: in vivo
Settings: rat; preparation containing 5 units of bovine insulin; three hours after administration
Description: Two white laboratory rats, weighing 177 and 197 grams, respectively, were used in this experiment. One rat was administered a preparation of oral insulin according to the present invention containing 5 units of insulin; a formulation of the oral insulin according to the present invention containing 10 units of bovine insulin was administered to the second rat. Blood samples were drawn from each animal before and three hours after administration of the oral insulin preparation. The results given below are expressed as the percentage of the pre-experiment blood glucose level.
One white laboratory rat weighing 181 grams received a non-encapsulated preparation containing 5 units of free bovine insulin. This animal served as the control. After three hours, blood glucose level was 98.7% of the pre-experiment blood glucose level.

free bovine insulin: non-encapsulated preparation containing 5 units of free bovine insulin; served as the control
blood glucose level as percentage of the pre-experiment blood glucose level: 98.7%

Source: patent publication US4849405A, “Oral insulin and a method of making the same” (priority 1986, dated 1989)
